This is an account of results in patent publication US20250034182A1, “PHOSPHOLIPID COMPOUNDS AND METHODS OF MAKING AND USING THE SAME” (priority 2021, published 2025).

What is called CC50 is the concentration that lowers cell viability or growth by half. A high value points to lower toxicity to the cells. As a reminder, the EC50 is the concentration needed to bring the measured effect to its halfway point.

Holding throughout (assay type): cell-based
Series [1] can be described thus: in vitro. The note with it: human.
Series [2] in a line: in vitro. The note with it: human. How it is done:
H1-HeLa cell viability was measured using the CellTiter-Glo® Luminescent Cell Viability Assay kit (Promega, Cat #G7573) according to the manufacturer's protocol. H1-HeLa cells were maintained in Dulbecco's Modified Eagle's Medium with high glucose (Gibco, Cat #: 11995073) supplemented with 10% FBS (HyClone, Cat #: SH303396.03), 100 units/mL penicillin and 100 µg/mL streptomycin (Gibco, Cat #: 15140122). One day before compound treatment, H1-HeLa cells were seeded at […] into 96-well plates (Corning, Cat #3904) in Opti-MEM (Gibco, Cat #: 31985070) supplemented with 2% FBS, and were incubated at 37° C. in a 100% humid atmosphere containing 5% (v/v) CO2. After overnight incubation, the cells were treated with three-fold serial dilutions of the compound. At 96 hours post treatment, CellTiter-Glo reagents were added into each well and luminescence signals were recorded by an EnVision plate reader. The relative cell viability was calculated by normalizing the absorbance of the compound-treated groups to that of the DMSO-treated groups (set as 100% viability) and 10 μM puromycin treated groups (set as 0% viability). The CC50 (compound concentration for reducing 50% of cell viability) was calculated using a nonlinear regression model (four parameters).
This is another data set of the same source.

Series [3] deals with Recombinant Respiratory Syncytial virus strain A2 containing the firefly luciferase reporter (RSV-Fluc) in NHBE cells. As to the kind of experiment: RSV NHBE FLuc EC50 (Example I). The settings on record: human respiratory syncytial virus, 72 h, read-out: RSV NHBE FLuc EC50 (nM) (per Ex. I). The procedure, abridged: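 NHBE primary cells (passage 2-4) treated with threefold compound dilutions and infected with RSV A2 firefly-luciferase reporter virus at MOI 0.1; 3 days at 37° C, 5% CO2. ONE-Glo luminescence normalized to uninfected and infected DMSO controls; EC50 from non-linear regression, duplicates with two technical repeats.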

The test system of series [4] is dengue virus type 2 in Huh7 hepatoblastoma cells. The series is described as follows: Dengue Virus-2 Huh-7 EC50 (Example W). The note with it: MOI of 0.07, CPE, neutral red dye, read-out: Dengue Virus-2 Huh-7 EC50 (nM) (per Ex. W). The procedure, abridged: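 Huh7 monolayers were infected with dengue virus type 2 (about 2000 CCID50/well, MOI 0.07) in the presence of eight 3-fold compound dilutions, top 50 μg/mL, and incubated until >80% CPE. Viability by neutral red uptake at 540 nm, normalized to virus controls; EC50 and CC50 by linear regression.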

The compound `CCCCCCCCCCCCCCCCCCC[C@H](COP(=O)(O)OC[C@@]1(C#N)O[C@@H](c2ccc3c(N)ncnn23)[C@H](O)[C@@H]1O)OCc1cc(F)cc(C#N)c1` [Compound 25, ((2R,3S,4R,5S)-5-(4-aminopyrrolo[2,1-f][1,2,4]triazin-7-yl)-2-cyano-3,4-dihydroxytetrahydrofuran-2-yl)methyl ((R)-2-((3-cyano-5-fluorobenzyl)oxy)henicosyl) hydrogen phosphate] yielded a CC50 in the series “in vitro [1]” of 13 µM. For the same compound, it took 8.49 µM to reach half-maximal cytotoxicity in the series “in vitro [2]” (CC50 at 96 h). In addition, the values for the EC50 in series [3] and in series [4] were 98 nM and 9200 nM, respectively.
Take `CCCCCCCCCCCCCCCCCCC[C@H](COP(=O)(O)OC[C@@]1(C#N)O[C@@H](c2ccc3c(N)ncnn23)[C@H](O)[C@@H]1O)OCc1ccc(C#N)c(OC(C)C)c1` [Compound 28, ((2R,3S,4R,5S)-5-(4-aminopyrrolo[2,1-f][1,2,4]triazin-7-yl)-2-cyano-3,4-dihydroxytetrahydrofuran-2-yl)methyl ((R)-2-((4-cyano-3-isopropoxybenzyl)oxy)henicosyl) hydrogen phosphate]: the CC50 in the series “in vitro [1]” amounted to 19 µM. The compound also yielded a CC50 at 96 h in “in vitro [2]” of 9.9 µM. Also, the EC50 in series [3] is 28 nM; in series [4] it was 9500 nM.
For `CCCCCCCCCCCCCCCCC[C@H](COP(=O)(O)OC[C@@]1(C#N)O[C@@H](c2ccc3c(N)ncnn23)[C@H](O)[C@@H]1O)OCc1cc(F)cc(C#N)c1` [Compound 36, ((2R,3S,4R,5S)-5-(4-aminopyrrolo[2,1-f][1,2,4]triazin-7-yl)-2-cyano-3,4-dihydroxytetrahydrofuran-2-yl)methyl ((R)-2-((3-cyano-5-fluorobenzyl)oxy)nonadecyl) hydrogen phosphate] the same measures were 17 µM, 9.56 µM, 121 nM and 10000 nM.
As for `CCCCCCCCCCCCCCCCCCC[C@H](COP(=O)(O)OC[C@@]1(C#N)O[C@@H](c2ccc3c(N)ncnn23)[C@H](O)[C@@H]1O)Oc1ccc(C#N)c(OC(C)C)c1` [Compound 38, ((2R,3S,4R,5S)-5-(4-aminopyrrolo[2,1-f][1,2,4]triazin-7-yl)-2-cyano-3,4-dihydroxytetrahydrofuran-2-yl)methyl ((R)-2-(4-cyano-3-isopropoxyphenoxy)henicosyl) hydrogen phosphate], the midpoint of cytotoxicity in “in vitro [1]”, the CC50, lay at 5.8 µM. The same compound had a CC50 at 96 h in the series “in vitro [2]” of 6.19 µM. The EC50 in series [3] was found to be 23 nM; in series [4], 2900 nM.
Take `CCCCCCCCCCCCCCCCCCOCC(COc1cc(F)cc(C#N)c1)COP(=O)(O)OC[C@@]1(C#N)O[C@@H](c2ccc3c(N)ncnn23)[C@H](O)[C@@H]1O` (stereo partly drawn) [Compound 43, ((2R,3S,4R,5S)-5-(4-aminopyrrolo[2,1-f][1,2,4]triazin-7-yl)-2-cyano-3,4-dihydroxytetrahydrofuran-2-yl)methyl (3-(3-cyano-5-fluorophenoxy)-2-((octadecyloxy)methyl)propyl) hydrogen phosphate]: in the series “in vitro [1]”, the CC50 was 14 µM. This compound also displayed a CC50 at 96 h in “in vitro [2]” of 4 µM. Moreover, the results for the EC50 in series [3] and in series [4] were 129 nM and 9700 nM, respectively.
